Results as given in ChEMBL document CHEMBL5678804 (Cancer Cell, 2011).

Key:
[1] = biological target: Ribosomal protein S6 kinase alpha-6 (Homo sapiens, UniProt Q9UK32); assay: Inhibition of human wild type RSK4 using RBER-GSK3([…] to […]) as substrate preincubated for 2 hrs followed by ATP addition and measured every 2 mins for […] by spectrophotometric analysis
[2] = biological target: Platelet-derived growth factor receptor alpha (Homo sapiens, UniProt P16234); assay: Inhibition of human wild type PDGFR alpha using Poly(Ala,Glu,Lys,Tyr)6:2:5:1 as substrate preincubated for 2 hrs followed by ATP addition and measured every 2 mins for […] by spectrophotometric analysis
[3] = biological target: Dual specificity mitogen-activated protein kinase kinase 1 (Homo sapiens, UniProt Q02750); assay: Inhibition of human wild type MEK1 using ERK2-KR as substrate preincubated for 2 hrs followed by ATP addition and measured every 2 mins for […] by spectrophotometric analysis
Aurora kinase A = Aurora kinase A (Homo sapiens, UniProt O14965); assay: Inhibition of human wild type AuroraA using bio-4xCHKT as substrate preincubated for 2 hrs followed by ATP addition and measured every 2 mins for […] by spectrophotometric analysis
Mononuclear cell line = assay: Inhibition of myeloid colony formation in CML patient derived human Mononuclear cell line; type: functional, cell-based; conditions: dose 50-200 nM
[4] = biological target: Tyrosine-protein kinase SYK (Homo sapiens, UniProt P43405); assay: Inhibition of human wild type SYK using PolyEY as substrate preincubated for 2 hrs followed by ATP addition and measured every 2 mins for […] by spectrophotometric analysis
[5] = biological target: Mitogen-activated protein kinase kinase kinase kinase 4 (Homo sapiens, UniProt O95819); assay: Inhibition of human wild type HGK using Casein as substrate preincubated for 2 hrs followed by ATP addition and measured every 2 mins for […] by spectrophotometric analysis
[6] = biological target: Mitogen-activated protein kinase kinase kinase 8 (Homo sapiens, UniProt P41279); assay: Inhibition of human wild type COT1 using RBER-CHKtide as substrate preincubated for 2 hrs followed by ATP addition and measured every 2 mins for […] by spectrophotometric analysis
[7] = biological target: Ribosomal protein S6 kinase alpha-4 (Homo sapiens, UniProt O75676); assay: Inhibition of human wild type MSK2 using RBER-CHKtide as substrate preincubated for 2 hrs followed by ATP addition and measured every 2 mins for […] by spectrophotometric analysis
[8] = biological target: Lymphokine-activated killer T-cell-originated protein kinase (Homo sapiens, UniProt Q96KB5); assay: Inhibition of human wild type PBK using Histon H1 as substrate preincubated for 2 hrs followed by ATP addition and measured every 2 mins for […] by spectrophotometric analysis
[9] = biological target: Mitogen-activated protein kinase kinase kinase 10 (Homo sapiens, UniProt Q02779); assay: Inhibition of human wild type MLK2 using Histon H2B as substrate preincubated for 2 hrs followed by ATP addition and measured every 2 mins for […] by spectrophotometric analysis
[10] = biological target: Tyrosine-protein kinase ABL1 (Homo sapiens, UniProt P00519); conditions: Sf9, time 2.0 hrs
[11] = biological target: Serine/threonine-protein kinase STK11 (Homo sapiens, UniProt Q15831); assay: Inhibition of human wild type LKB1 using RB-CTF as substrate preincubated for 2 hrs followed by ATP addition and measured every 2 mins for […] by spectrophotometric analysis
[12] = biological target: Serine/threonine-protein kinase PLK1 (Homo sapiens, UniProt P53350); assay: Inhibition of human wild type PLK1 using RBER-CHKtide as substrate preincubated for 2 hrs followed by ATP addition and measured every 2 mins for […] by spectrophotometric analysis
[13] = biological target: Serine/threonine-protein kinase NLK (Homo sapiens, UniProt Q9UBE8); assay: Inhibition of human wild type NLK using RBER-GSK3([…]-[…]) as substrate preincubated for 2 hrs followed by ATP addition and measured every 2 mins for […] by spectrophotometric analysis
[14] = biological target: Dual specificity tyrosine-phosphorylation-regulated kinase 1A (Homo sapiens, UniProt Q13627); assay: Inhibition of human wild type DYRK1 using RBER-CHKtide as substrate preincubated for 2 hrs followed by ATP addition and measured every 2 mins for […] by spectrophotometric analysis
[15] = biological target: Mitogen-activated protein kinase 1 (Homo sapiens, UniProt P28482); assay: Inhibition of human wild type ERK2 using RBER-CHKtide as substrate preincubated for 2 hrs followed by ATP addition and measured every 2 mins for […] by spectrophotometric analysis
[16] = biological target: Death-associated protein kinase 1 (Homo sapiens, UniProt P53355); assay: Inhibition of human wild type DAPK1 using RBER-GSK3([…] to […]) as substrate preincubated for 2 hrs followed by ATP addition and measured every 2 mins for […] by spectrophotometric analysis
[17] = biological target: Rho-associated protein kinase 1 (Homo sapiens, UniProt Q13464); assay: Inhibition of human wild type ROCK1 using 3xChocktide-PKC([…] to […]) as substrate preincubated for 2 hrs followed by ATP addition and measured every 2 mins for […] by spectrophotometric analysis
[18] = biological target: Receptor tyrosine-protein kinase erbB-2 (Homo sapiens, UniProt P04626); assay: Inhibition of human wild type HER2 using PolyEY as substrate preincubated for 2 hrs followed by ATP addition and measured every 2 mins for […] by spectrophotometric analysis
[19] = biological target: Myosin light chain kinase 2, skeletal/cardiac muscle (Homo sapiens, UniProt Q9H1R3); assay: Inhibition of human wild type MLCK2 using RB-S6P as substrate preincubated for 2 hrs followed by ATP addition and measured every 2 mins for […] by spectrophotometric analysis
[20] = biological target: Dual specificity protein kinase TTK (Homo sapiens, UniProt P33981); assay: Inhibition of human wild type TTK using RBER-CHKtide as substrate preincubated for 2 hrs followed by ATP addition and measured every 2 mins for […] by spectrophotometric analysis
[21] = biological target: Fibroblast growth factor receptor 3 (Homo sapiens, UniProt P22607); assay: Inhibition of human wild type FGFR3 using PolyEY as substrate preincubated for 2 hrs followed by ATP addition and measured every 2 mins for […] by spectrophotometric analysis
[22] = biological target: Tyrosine-protein kinase JAK3 (Homo sapiens, UniProt P52333); assay: Inhibition of human wild type JAK3 using Poly(Ala,Glu,Lys,Tyr)6:2:5:1 as substrate preincubated for 2 hrs followed by ATP addition and measured every 2 mins for […] by spectrophotometric analysis
[23] = biological target: Megakaryocyte-associated tyrosine-protein kinase (Homo sapiens, UniProt P42679); assay: Inhibition of human wild type CTK using PolyEY as substrate preincubated for 2 hrs followed by ATP addition and measured every 2 mins for […] by spectrophotometric analysis
[24] = biological target: Homeodomain-interacting protein kinase 4 (Homo sapiens, UniProt Q8NE63); assay: Inhibition of human wild type HIPK4 using RBER-IRStide as substrate preincubated for 2 hrs followed by ATP addition and measured every 2 mins for […] by spectrophotometric analysis
[25] = biological target: Casein kinase I isoform alpha (Homo sapiens, UniProt P48729); assay: Inhibition of human wild type CK1 alpha using Casein as substrate preincubated for 2 hrs followed by ATP addition and measured every 2 mins for […] by spectrophotometric analysis
[26] = biological target: Receptor tyrosine-protein kinase erbB-4 (Homo sapiens, UniProt Q15303); assay: Inhibition of human wild type HER4 using PolyEY as substrate preincubated for 2 hrs followed by ATP addition and measured every 2 mins for […] by spectrophotometric analysis
Receptor tyrosine-protein kinase erbB-4, sequence (Q15303 whole entry): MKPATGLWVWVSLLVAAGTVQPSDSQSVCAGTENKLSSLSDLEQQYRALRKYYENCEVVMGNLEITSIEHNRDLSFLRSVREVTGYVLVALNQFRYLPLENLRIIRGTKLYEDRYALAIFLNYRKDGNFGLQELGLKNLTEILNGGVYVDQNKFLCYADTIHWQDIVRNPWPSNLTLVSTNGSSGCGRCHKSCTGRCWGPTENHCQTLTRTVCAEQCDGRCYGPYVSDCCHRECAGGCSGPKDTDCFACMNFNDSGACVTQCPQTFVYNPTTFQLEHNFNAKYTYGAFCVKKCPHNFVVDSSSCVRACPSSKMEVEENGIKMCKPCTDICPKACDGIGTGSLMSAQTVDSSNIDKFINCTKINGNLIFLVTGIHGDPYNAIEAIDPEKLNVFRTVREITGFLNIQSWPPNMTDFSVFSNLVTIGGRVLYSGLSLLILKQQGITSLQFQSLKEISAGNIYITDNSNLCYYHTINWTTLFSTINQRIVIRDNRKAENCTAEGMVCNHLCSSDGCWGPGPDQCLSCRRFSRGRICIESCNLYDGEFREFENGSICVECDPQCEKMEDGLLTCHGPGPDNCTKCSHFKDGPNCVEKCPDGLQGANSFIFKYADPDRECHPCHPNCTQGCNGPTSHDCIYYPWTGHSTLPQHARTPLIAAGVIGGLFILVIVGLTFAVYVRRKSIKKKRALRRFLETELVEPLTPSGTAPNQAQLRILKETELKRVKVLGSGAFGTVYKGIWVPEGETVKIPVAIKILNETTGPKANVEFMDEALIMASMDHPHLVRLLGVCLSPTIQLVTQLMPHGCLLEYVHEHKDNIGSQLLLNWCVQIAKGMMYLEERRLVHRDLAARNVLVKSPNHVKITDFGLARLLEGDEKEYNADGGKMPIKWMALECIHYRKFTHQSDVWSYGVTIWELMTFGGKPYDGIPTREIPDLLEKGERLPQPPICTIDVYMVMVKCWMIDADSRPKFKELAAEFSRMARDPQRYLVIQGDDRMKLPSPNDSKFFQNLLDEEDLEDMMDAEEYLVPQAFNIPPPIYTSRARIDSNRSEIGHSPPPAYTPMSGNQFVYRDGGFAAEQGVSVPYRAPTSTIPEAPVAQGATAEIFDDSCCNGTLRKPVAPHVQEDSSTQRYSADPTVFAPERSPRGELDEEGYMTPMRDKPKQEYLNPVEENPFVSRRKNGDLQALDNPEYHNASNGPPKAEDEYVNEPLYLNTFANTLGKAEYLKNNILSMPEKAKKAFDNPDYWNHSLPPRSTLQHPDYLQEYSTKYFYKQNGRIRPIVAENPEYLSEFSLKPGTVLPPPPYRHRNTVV

Mitogen-activated protein kinase kinase kinase 8, sequence (P41279 whole entry): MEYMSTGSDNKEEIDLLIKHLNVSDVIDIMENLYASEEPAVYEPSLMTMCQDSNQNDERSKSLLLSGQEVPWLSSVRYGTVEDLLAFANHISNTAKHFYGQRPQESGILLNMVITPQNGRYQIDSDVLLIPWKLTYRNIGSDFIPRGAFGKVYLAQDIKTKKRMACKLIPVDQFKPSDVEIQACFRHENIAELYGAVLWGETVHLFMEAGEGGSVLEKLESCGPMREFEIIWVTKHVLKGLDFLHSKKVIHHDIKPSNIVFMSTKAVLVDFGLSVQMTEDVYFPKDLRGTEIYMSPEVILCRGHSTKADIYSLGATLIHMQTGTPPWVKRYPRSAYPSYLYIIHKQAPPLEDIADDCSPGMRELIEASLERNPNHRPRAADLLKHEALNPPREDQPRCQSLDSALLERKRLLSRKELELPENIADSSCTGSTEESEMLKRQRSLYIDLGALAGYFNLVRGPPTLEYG
Tyrosine-protein kinase JAK3, sequence (P52333 whole entry): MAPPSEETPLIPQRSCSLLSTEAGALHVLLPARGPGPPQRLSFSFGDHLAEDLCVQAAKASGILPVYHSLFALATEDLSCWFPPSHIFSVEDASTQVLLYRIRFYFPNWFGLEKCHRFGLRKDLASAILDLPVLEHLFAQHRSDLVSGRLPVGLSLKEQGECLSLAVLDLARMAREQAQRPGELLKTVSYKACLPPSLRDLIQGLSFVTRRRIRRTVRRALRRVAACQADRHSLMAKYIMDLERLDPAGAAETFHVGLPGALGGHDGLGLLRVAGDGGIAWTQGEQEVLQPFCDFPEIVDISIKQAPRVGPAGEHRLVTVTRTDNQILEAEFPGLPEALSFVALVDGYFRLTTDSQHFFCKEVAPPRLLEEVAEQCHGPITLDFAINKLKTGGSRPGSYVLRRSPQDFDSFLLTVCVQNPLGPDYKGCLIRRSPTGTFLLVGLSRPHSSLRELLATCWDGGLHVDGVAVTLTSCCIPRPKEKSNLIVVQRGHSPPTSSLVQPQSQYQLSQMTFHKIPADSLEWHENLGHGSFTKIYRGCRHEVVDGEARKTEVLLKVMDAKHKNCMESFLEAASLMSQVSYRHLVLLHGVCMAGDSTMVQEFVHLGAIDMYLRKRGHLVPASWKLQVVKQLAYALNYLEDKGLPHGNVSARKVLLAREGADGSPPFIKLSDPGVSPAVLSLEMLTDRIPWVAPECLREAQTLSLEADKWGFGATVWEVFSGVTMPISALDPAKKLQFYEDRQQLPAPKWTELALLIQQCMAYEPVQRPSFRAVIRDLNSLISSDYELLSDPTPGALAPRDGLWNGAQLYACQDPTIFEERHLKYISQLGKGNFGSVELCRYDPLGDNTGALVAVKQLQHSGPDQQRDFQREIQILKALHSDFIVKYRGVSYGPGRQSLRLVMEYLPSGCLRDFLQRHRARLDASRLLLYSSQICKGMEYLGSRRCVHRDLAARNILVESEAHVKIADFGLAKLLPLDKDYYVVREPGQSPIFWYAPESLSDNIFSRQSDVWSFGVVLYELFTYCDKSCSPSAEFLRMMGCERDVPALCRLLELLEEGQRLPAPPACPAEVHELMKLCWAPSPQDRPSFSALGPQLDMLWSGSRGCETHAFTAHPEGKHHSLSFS
Mitogen-activated protein kinase 1, sequence (P28482 whole entry): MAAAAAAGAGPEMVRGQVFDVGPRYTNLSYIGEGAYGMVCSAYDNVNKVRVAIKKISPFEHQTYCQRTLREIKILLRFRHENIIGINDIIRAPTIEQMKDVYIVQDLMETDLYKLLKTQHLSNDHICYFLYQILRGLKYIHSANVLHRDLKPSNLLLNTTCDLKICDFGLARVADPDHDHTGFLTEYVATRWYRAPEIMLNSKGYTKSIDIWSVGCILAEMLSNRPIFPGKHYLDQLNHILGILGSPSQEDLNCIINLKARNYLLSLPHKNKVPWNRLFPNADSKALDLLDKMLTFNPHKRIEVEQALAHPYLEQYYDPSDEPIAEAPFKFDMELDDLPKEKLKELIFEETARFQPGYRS
Serine/threonine-protein kinase PLK1, sequence (P53350 whole entry): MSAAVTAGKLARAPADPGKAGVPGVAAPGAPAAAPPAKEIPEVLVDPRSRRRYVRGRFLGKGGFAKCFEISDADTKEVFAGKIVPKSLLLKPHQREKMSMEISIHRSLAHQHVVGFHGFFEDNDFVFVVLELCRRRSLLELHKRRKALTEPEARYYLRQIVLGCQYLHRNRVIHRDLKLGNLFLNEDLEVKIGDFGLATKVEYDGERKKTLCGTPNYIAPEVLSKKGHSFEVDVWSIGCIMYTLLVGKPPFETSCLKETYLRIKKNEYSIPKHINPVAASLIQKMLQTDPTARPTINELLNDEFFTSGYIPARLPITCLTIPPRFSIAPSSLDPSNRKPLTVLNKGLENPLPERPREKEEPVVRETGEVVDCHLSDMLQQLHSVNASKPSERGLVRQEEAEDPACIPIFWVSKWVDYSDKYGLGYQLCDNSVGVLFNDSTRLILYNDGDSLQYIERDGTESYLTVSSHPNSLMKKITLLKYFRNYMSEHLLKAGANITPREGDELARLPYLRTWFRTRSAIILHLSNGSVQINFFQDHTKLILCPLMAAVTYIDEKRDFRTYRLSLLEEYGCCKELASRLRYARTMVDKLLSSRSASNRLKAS
Mitogen-activated protein kinase kinase kinase kinase 4, sequence (O95819 whole entry): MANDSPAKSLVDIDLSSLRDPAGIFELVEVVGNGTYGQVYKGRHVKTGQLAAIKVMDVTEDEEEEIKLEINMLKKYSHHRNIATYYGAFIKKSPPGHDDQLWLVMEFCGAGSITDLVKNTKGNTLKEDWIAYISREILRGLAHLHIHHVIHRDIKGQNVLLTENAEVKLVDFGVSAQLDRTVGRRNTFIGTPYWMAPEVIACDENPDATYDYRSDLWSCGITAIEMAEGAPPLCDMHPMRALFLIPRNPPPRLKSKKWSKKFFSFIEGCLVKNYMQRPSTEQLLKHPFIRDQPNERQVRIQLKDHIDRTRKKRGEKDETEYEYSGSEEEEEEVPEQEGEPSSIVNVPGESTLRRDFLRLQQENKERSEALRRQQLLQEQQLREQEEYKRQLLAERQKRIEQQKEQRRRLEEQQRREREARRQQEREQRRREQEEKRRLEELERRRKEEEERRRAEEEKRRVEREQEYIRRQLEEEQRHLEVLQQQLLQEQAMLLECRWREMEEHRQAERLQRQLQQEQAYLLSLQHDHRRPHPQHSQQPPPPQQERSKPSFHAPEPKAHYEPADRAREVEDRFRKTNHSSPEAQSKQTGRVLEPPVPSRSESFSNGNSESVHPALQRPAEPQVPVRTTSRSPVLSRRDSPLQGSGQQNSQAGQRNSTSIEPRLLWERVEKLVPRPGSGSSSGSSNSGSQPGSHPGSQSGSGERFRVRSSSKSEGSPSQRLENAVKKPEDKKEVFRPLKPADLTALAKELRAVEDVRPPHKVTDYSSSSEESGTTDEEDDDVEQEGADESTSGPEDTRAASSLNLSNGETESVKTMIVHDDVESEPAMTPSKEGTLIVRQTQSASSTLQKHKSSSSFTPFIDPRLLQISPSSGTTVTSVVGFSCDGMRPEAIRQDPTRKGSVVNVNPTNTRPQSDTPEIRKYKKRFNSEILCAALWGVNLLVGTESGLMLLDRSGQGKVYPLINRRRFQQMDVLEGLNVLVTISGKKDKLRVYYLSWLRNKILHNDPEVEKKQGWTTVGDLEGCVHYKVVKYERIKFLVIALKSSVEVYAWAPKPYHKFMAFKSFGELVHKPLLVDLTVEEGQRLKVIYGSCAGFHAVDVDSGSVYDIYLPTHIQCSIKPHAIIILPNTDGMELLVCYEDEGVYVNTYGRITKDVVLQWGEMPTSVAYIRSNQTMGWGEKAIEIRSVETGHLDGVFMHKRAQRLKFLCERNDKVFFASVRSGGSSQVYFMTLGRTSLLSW

Structure (SMILES): CNC(=O)c1cc(Oc2ccc(NC(=O)Nc3cc(C(C)(C)C)nn3-c3ccc4ncccc4c3)c(F)c2)ccn1 [REBASTINIB]
- IC50 [1]: > 1 µM
- IC50 [2]: 0.07 µM
- IC50 [3]: > 1 µM
- IC50 (Aurora kinase A): > 5 µM
- inhibition (Mononuclear cell line): Dose-Dependent Effect
- IC50 [4]: 0.16 µM
- IC50 [5]: 0.045 µM
- IC50 [6]: > 1 µM
- IC50 [7]: > 1 µM
- IC50 [8]: > 1 µM
- IC50 [9]: > 1 µM
- T1/2 [10]: 6.53 h
- IC50 [11]: > 1 µM
- IC50 [12]: > 1 µM
- IC50 [13]: > 1 µM
- IC50 [14]: > 1 µM
- IC50 [15]: > 1 µM
- IC50 [16]: > 1 µM
- IC50 [17]: > 1 µM
- IC50 [18]: > 1 µM
- IC50 [19]: > 1 µM
- IC50 [20]: 0.29 µM
- IC50 [21]: 0.01 µM
- IC50 [22]: > 1 µM
- IC50 [23]: > 1 µM
- IC50 [24]: 0.45 µM
- IC50 [25]: > 1 µM
- IC50 [26]: > 1 µM
